The values below come from patent publication EP4745118A1, “HYDROXAMIC ACID COMPOUND OR PHARMACEUTICALLY ACCEPTABLE SALT THEREOF, AND USE THEREOF AND PREPARATION METHOD THEREFOR” (priority 2023, dated 2025).

In one test the test system is Citrobacter freundii. Nature of the test: In vitro antibacterial activity, agar dilution method (MIC). Type of test: cell-based. The method, then: (§1) According to the relevant operating procedures of the Clinical Laboratory Standards Institute (CLSI) in the United States, an antimicrobial susceptibility testing was conducted using the agar dilution method. […]. The agar was allowed to solidify and set aside for later use.
(§2) The test bacteria were propagated in broth and adjusted to a turbidity of 0.5 McFarland (approximately 1-2 × 10^8 CFU/mL) using a turbidimeter before inoculation. The 0.5 McFarland bacterial solution was then diluted 10-fold in broth (approximately 1-2 × 10^7 CFU/mL). A multipoint inoculator was used to inoculate the above bacterial solution onto a series of plates containing different concentrations of drugs (with an inoculation amount of approximately 10^4 CFU per inoculation site). After incubation at a constant temperature of 35°C for 18 hours, results were observed. The minimum concentration of drugs contained in sterile growth plates was determined as the Minimal Inhibitory Concentration (MIC).
In general terms: In agar dilution the substance is mixed into plates at graded concentrations.

The next test has as its system Enterobacter aerogenes. The description is as above. Type of test: cell-based. How it is done: as §1, §2
In the next test the test system is Escherichia coli. The test is described as above. Type of test: cell-based. The settings on record: agar dilution, 35°C. The method, then:
as §1, §2

The next test relates to Klebsiella pneumoniae. Described as above. It counts as cell-based. Particulars: agar dilution, 35°C. How it is done:
as §1, §2

The test system of another test is Pantoea agglomerans. The description is as above. Type of test: cell-based. The method, then: as §1, §2
Another test relates to Proteus mirabilis. The description is as above. It counts as cell-based. The method, then:
as §1, §2

The test system of another test is Proteus vulgaris. The test is described as above. It counts as cell-based. The method, then: as §1, §2
A further test has as its system Pseudomonas aeruginosa. The description is as above. Type of test: cell-based. How it is done:
as §1, §2

A further test concerns Serratia marcescens. The description is as above. It counts as cell-based. The method, then: as §1, §2
The test system of a further test is Enterobacter cloacae. The description is as above. It counts as cell-based. How it is done: According to the relevant operating procedures of the Clinical Laboratory Standards Institute (CLSI) in the United States, an antimicrobial susceptibility testing was conducted using the agar dilution method. […] The agar was allowed to solidify and set aside for later use.
as §2

A further test has as its system Shigella flexneri. The description is as above. It counts as cell-based. Particulars: 18 hours. How it is done: According to the relevant operating procedures of the Clinical Laboratory Standards Institute (CLSI) in the United States, an antimicrobial susceptibility testing was conducted using the agar dilution method. A 1920 µg/mL stock solution was serially diluted twofold with sterile water to obtain dilutions of 960, 480, 240, 120, 60, 30, 15, 7.5, 3.75, 1.88, 0.94, 0.47 µg/mL, and 1 mL of the dilution was taken respectively from the dilutions with different concentrations and added to a Petri dish, to which 14 mL of melted MH agar medium was added and mixed thoroughly, and the final concentration of the drug in the petri dish is 128, 64, 32, 16, 8, 4, 2, 1, 0.5, 0.25, 0.12, 0.06, and 0.03 µ g/mL, respectively. The agar was allowed to solidify and set aside for later use.
as §2

Test [1] has as its system Escherichia coli ATCC BAA2469 (CRE, NDM-1-producing). Briefly: In vivo antibacterial activity, intraperitoneal infection in mice (survival over 7 days). The settings on record: for Animal survival rate / Number of surviving animals: mice, one intravenous administration 1 hour post-infection, 7 days; for Number of surviving animals: 5 animals per group. The method, then: Mice were randomly grouped based on body weight, with 5 mice in each group, regardless of gender. The infectious bacteria was Escherichia coli ATCC BAA2469 (CRE, NDM-1-producing). The test bacterial solution was diluted with 5% high-activity dry yeast. Mice received intraperitoneal injection of 0.5 mL of 100% minimum lethal dose (100% MLD) bacterial solution. One intravenous administration was given at 1 hour post-infection at a dose volume of 10 mL/kg. Animal survival numbers were observed over 7 days, and survival rates were calculated.

Setting [2] is: Citrobacter freundii ATCC 43864, agar dilution, 35°C, 18 hours.
Where [3] appears, read: Enterobacter aerogenes ATCC 13048, agar dilution, 35°C, 18 hours.
Setting [4] is: Escherichia coli 13-43 (mcr-1), 18 hours.
Setting [5] is: Escherichia coli 17-R28 (CRE, NDM-1-producing), 18 hours.
The mark [6] stands for this setting: Escherichia coli ATCC 2469 (CRE, NDM-1-producing), 18 hours.
[7] abbreviates: Escherichia coli ATCC 35218 (ESBLs-producing), 18 hours.
[8] abbreviates: Klebsiella pneumoniae 09-20 (mcr-1), 18 hours.
Where [9] appears, read: Klebsiella pneumoniae 17-R27 (CRE), 18 hours.
Where [10] appears, read: Klebsiella pneumoniae 18-8 (ESBLs-producing), 18 hours.
Where [11] appears, read: Klebsiella pneumoniae ATCC 700603 (ESBLs-producing), 18 hours.
[12] abbreviates: Klebsiella pneumoniae ATCC BAA-2146 (CRE, NDM-1-producing), 18 hours.
Setting [13] is: Pantoea agglomerans ATCC 27993, agar dilution, 35°C, 18 hours.
Setting [14] is: Proteus mirabilis ATCC 49565, agar dilution, 35°C, 18 hours.
Where [15] appears, read: Proteus vulgaris ATCC 29905, agar dilution, 35°C, 18 hours.
Where [16] appears, read: Pseudomonas aeruginosa PAO1, agar dilution, 35°C, 18 hours.
[17] abbreviates: Serratia marcescens ATCC 21074, agar dilution, 35°C, 18 hours.
Where [18] appears, read: Enterobacter cloacae CDC1000654 (NDM-1-producing), agar dilution, 35°C, 18 hours.
Setting [19] is: Shigella flexneri ATCC 12022, 35°C.

≈ marks a conversion by molar mass, not a printed value. Like-named read-outs stand apart in the source and are kept apart here. Bounds are passed on as bounds.

Regarding `CN(C)c1cc(NC(=O)CNC(C)(C)C)c(O)c2c1C[C@H]1C[C@H]3[C@H](N(C)C)C(O)=C(C(N)=O)C(=O)[C@@]3(O)C(O)=C1C2=O` [Tigecycline], the minimal inhibitory concentration (MIC) (commonly the lowest concentration that inhibits growth of the organism) in the test with Citrobacter freundii (Citrobacter freundii, ATCC43864, 18 h) worked out at 1 µg/mL (≈ 1.71 µM); in the test with Enterobacter aerogenes (Klebsiella aerogenes, ATCC13048, 18 h), 1 µg/mL (≈ 1.71 µM); against Escherichia coli (Escherichia coli, 18 h, Escherichia coli 13-43 (mcr-1)), 1 µg/mL (≈ 1.71 µM); against Escherichia coli (Escherichia coli, 18 h, Escherichia coli 17-R28 (CRE, NDM-1-producing)), 0.12 µg/mL (≈ 0.205 µM); in the test with Escherichia coli (Escherichia coli, ATCC2469, 18 h, Escherichia coli ATCC 2469 (CRE, NDM-1-producing), 18 hours), 0.5 µg/mL (≈ 0.854 µM); in the test with Escherichia coli (Escherichia coli, ATCC35218, 18 h, Escherichia coli ATCC 35218 (ESBLs-producing), 18 hours, read-out: MIC), 0.12 µg/mL (≈ 0.205 µM). The MIC is 2 µg/mL (≈ 3.41 µM) in the test with Klebsiella pneumoniae (Klebsiella pneumoniae, 18 h, Klebsiella pneumoniae 09-20 (mcr-1)); 2 µg/mL (≈ 3.41 µM) against Klebsiella pneumoniae (Klebsiella pneumoniae, 18 h, Klebsiella pneumoniae 17-R27 (CRE)); 2 µg/mL (≈ 3.41 µM) in the test with Klebsiella pneumoniae (Klebsiella pneumoniae, 18 h, Klebsiella pneumoniae 18-8 (ESBLs-producing), 18 hours, read-out: MIC); 8 µg/mL (≈ 13.7 µM) in the test with Klebsiella pneumoniae (Klebsiella pneumoniae, ATCC700603, 18 h, Klebsiella pneumoniae ATCC 700603 (ESBLs-producing), 18 hours, read-out: MIC); 8 µg/mL (≈ 13.7 µM) in the test with Klebsiella pneumoniae (Klebsiella pneumoniae, ATCCBAA2146, 18 h, Klebsiella pneumoniae ATCC BAA-2146 (CRE, NDM-1-producing), 18 hours); 0.5 µg/mL (≈ 0.854 µM) against Pantoea agglomerans (Pantoea agglomerans, ATCC27993, 18 h). Further, the MIC turned out to be 4 µg/mL (≈ 6.83 µM) in the test on Proteus mirabilis (Proteus mirabilis, ATCC49565, 18 h); 2 µg/mL (≈ 3.41 µM) in the test on Proteus vulgaris (Proteus vulgaris, ATCC29905, 18 h); 16 µg/mL (≈ 27.3 µM) against Pseudomonas aeruginosa (Pseudomonas aeruginosa, PAO1, 18 h); 2 µg/mL (≈ 3.41 µM) in the test on Serratia marcescens (Serratia marcescens, ATCC21074, 18 h); 8 µg/mL (≈ 13.7 µM) against Enterobacter cloacae (Enterobacter cloacae, 18 h); 0.12 µg/mL (≈ 0.205 µM) with Shigella flexneri (ATCC12022, Shigella flexneri ATCC 12022, 35°C, read-out: MIC).

Regarding Colistin, the MIC in the test on Citrobacter freundii (setting [2]) came out at 0.5 µg/mL; in the test with Enterobacter aerogenes (setting [3]), 0.5 µg/mL; against Escherichia coli (setting [4]) it was 16 µg/mL; against Escherichia coli (setting [5]), 0.5 µg/mL; with Escherichia coli (setting [6]), 0.5 µg/mL; in the test with Escherichia coli (setting [7]) it was 0.5 µg/mL. Also, the minimal inhibitory concentration (MIC) against Klebsiella pneumoniae (setting [8]) is recorded as 16 µg/mL; against Klebsiella pneumoniae (setting [9]) it was 16 µg/mL; against Klebsiella pneumoniae (setting [10]) it was 0.5 µg/mL; in the test on Klebsiella pneumoniae (setting [11]), 0.5 µg/mL; in the test on Klebsiella pneumoniae (setting [12]), 1 µg/mL; with Pantoea agglomerans (setting [13]), 0.5 µg/mL. Further, the minimal inhibitory concentration (MIC) is reported as over 128 µg/mL in the test with Proteus mirabilis (setting [14]); over 128 µg/mL against Proteus vulgaris (setting [15]); 2 µg/mL in the test with Pseudomonas aeruginosa (setting [16]); over 128 µg/mL in the test with Serratia marcescens (setting [17]); 0.5 µg/mL against Enterobacter cloacae (setting [18]); 0.5 µg/mL against Shigella flexneri (setting [19]). Also, the “effective dose of in vivo antibacterial activity” value in test [1] (mice with intraperitoneal infection by Escherichia coli ATCC BAA2469, intravenous) is “below 1.5 mg/kg”. For the same compound, the results for the Animal survival rate in test [1] (dose 0.35 mg/kg), in [1] (dose 0.7 mg/kg) and in [1] (dose 1.4 mg/kg) were 0%, 20% and 80%, respectively. Further, the “Number of surviving animals” value came to 0 individuals in test [1] (dose 0.35 mg/kg), 1 individuals in test [1] (dose 0.7 mg/kg) and 4 individuals in test [1] (dose 1.4 mg/kg).

As for Polymyxin B, the MIC with Citrobacter freundii (setting [2]) was determined as 2 µg/mL; in the test with Enterobacter aerogenes (setting [3]) it was 1 µg/mL; against Escherichia coli (setting [4]), 8 µg/mL; against Escherichia coli (setting [5]), 0.5 µg/mL; in the test with Escherichia coli (setting [6]) it was 1 µg/mL; against Escherichia coli (setting [7]), 0.5 µg/mL. For the same compound, the minimum inhibitory concentration (MIC) in the test with Klebsiella pneumoniae (setting [8]) turned out to be 16 µg/mL; in the test with Klebsiella pneumoniae (setting [9]), 16 µg/mL; in the test on Klebsiella pneumoniae (setting [10]) it was 1 µg/mL; with Klebsiella pneumoniae (setting [11]), 1 µg/mL; in the test on Klebsiella pneumoniae (setting [12]) it was 1 µg/mL; against Pantoea agglomerans (setting [13]), 1 µg/mL. The MIC was over 128 µg/mL in the test with Proteus mirabilis (setting [14]); over 128 µg/mL in the test with Proteus vulgaris (setting [15]); 2 µg/mL against Pseudomonas aeruginosa (setting [16]); over 128 µg/mL against Serratia marcescens (setting [17]); 2 µg/mL in the test with Enterobacter cloacae (setting [18]); 1 µg/mL in the test on Shigella flexneri (setting [19]).
